In patent US9909219B2, “Slurry biocide” (ECOLAB USA INC., priority 2014, dated 2018):

How the values were obtained:
[1] = system: Sulfate Reducing Bacteria; assay: Biocide treatment of pipeline makeup water (river water): sulfate reducing bacteria count; assay type: cell-based
Description: (§1) Two water samples collected directly of makeup water of a pipeline sourced form river water, were submitted to biocide treatment. One sample was highly contaminated with microorganisms (1700 CFU/mL) while the other was less contaminated (120 CFU/mL). […] There is a dramatic reduction in required dosage using oxidizing biocide ([…]) (Tests 3, 4 and 7).

Total Aerobic Bacteria = assay: Biocide treatment of pipeline makeup water (river water): total aerobic bacteria count; assay type: cell-based
Description: as §1

Structure (SMILES) | Final Count Sulfate Reducing Bacteria ([1]; Test 1, initial count 30 CFU/mL, dosage 500 ppm) [CFU/mL] | Final Count Sulfate Reducing Bacteria ([1]; Test 5, initial count <10 CFU/mL, dosage 500 ppm) [CFU/mL] | Final Count Total Aerobic Bacteria (Total Aerobic Bacteria; Test 1, initial count 1700 CFU/mL, dosage 500 ppm) [CFU/mL] | Final Count Total Aerobic Bacteria (Total Aerobic Bacteria; Test 5, initial count 120 CFU/mL, dosage 500 ppm) [CFU/mL] | Final Count Sulfate Reducing Bacteria ([1]; Test 3, initial count 30 CFU/mL, dosage 5 ppm) [CFU/mL] | Final Count Sulfate Reducing Bacteria ([1]; Test 4, initial count <10 CFU/mL, dosage 4 ppm) [CFU/mL] | Final Count Sulfate Reducing Bacteria ([1]; Test 7, initial count <10 CFU/mL, dosage 1.5 ppm) [CFU/mL] | Final Count Total Aerobic Bacteria (Total Aerobic Bacteria; Test 3, initial count 1700 CFU/mL, dosage 5 ppm) [CFU/mL] | Final Count Total Aerobic Bacteria (Total Aerobic Bacteria; Test 4, initial count 120 CFU/mL, dosage 4 ppm) [CFU/mL] | Final Count Total Aerobic Bacteria (Total Aerobic Bacteria; Test 7, initial count 120 CFU/mL, dosage 1.5 ppm) [CFU/mL]
O=CCCCC=O [A, Glutaraldehyde] | 10 | <10 | 330 | <27 | – | – | – | – | – | –
[O][Cl+][O-] [ClO2, chlorine dioxide] | – | – | – | – | <10 | <10 | <10 | 30 | <27 | <27
